Test results reported in the kinase profiling compilation of Christmann-Franck et al. (2016).

Key:
Experiment in all cases: radiometric filter-binding kinase assay
MAPK13 (human) = MAPK13 (human) (UniProt O15264)
DYRK1A (human) = DYRK1A (human) (UniProt Q13627)
CAMKK2 (human) = CAMKK2 (human) (UniProt Q96RR4)
SYK (human) = SYK (human) (UniProt P43405)
[1] = system: SGK1 (human), O00141 [S422D]
PHKG1 (human) = PHKG1 (human) (UniProt Q16816)
PAK7 (human) = PAK7 (human) (UniProt Q9P286)
MAPK3 (human) = MAPK3 (human) (UniProt P27361)
MAP3K5 (human) = MAP3K5 (human) (UniProt Q99683); settings: compound 0.1 µM
MKNK1 (human) = MKNK1 (human) (UniProt Q9BUB5)
MKNK1 (human), sequence (Q9BUB5 whole entry, looked up): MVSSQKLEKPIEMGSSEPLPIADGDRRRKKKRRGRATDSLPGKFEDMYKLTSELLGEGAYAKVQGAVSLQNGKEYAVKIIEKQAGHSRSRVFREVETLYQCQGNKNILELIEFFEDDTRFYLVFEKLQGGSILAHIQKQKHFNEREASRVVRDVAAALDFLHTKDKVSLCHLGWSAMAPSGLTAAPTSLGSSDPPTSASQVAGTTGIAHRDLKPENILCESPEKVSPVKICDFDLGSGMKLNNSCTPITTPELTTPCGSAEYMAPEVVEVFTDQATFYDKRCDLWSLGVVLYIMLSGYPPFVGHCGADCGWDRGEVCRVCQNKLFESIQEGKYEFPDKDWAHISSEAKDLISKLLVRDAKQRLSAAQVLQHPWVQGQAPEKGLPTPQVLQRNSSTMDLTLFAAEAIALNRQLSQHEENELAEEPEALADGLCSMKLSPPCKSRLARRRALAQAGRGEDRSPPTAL

PIM2 (human) = PIM2 (human) (UniProt Q9P1W9)
MAP2K6 (human) = MAP2K6 (human) (UniProt P52564); settings: compound 0.1 µM
MAPKAPK2 (human) = MAPKAPK2 (human) (UniProt P49137)
FGFR1 (human) = FGFR1 (human) (UniProt P11362)
GSK3B (human) = GSK3B (human) (UniProt P49841)
GSK3B (human), sequence (P49841 whole entry, looked up): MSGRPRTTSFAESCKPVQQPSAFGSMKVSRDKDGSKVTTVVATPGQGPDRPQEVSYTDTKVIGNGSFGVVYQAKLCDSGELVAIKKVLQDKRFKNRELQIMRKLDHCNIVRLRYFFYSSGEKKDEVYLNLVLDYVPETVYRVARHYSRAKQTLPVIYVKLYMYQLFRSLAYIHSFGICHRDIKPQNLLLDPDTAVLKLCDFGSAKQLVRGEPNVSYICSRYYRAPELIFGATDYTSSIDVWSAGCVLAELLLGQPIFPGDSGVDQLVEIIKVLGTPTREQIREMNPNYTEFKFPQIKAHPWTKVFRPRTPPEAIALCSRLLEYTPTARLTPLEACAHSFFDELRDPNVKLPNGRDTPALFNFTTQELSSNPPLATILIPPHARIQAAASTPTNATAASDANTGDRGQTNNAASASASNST

PRKAA1 or PRKAA2 (rat) = settings: accession and sequence are those of the human protein
BRSK1 (human) = BRSK1 (human) (UniProt Q8TDC3); settings: compound 0.1 µM
MAPK12 (human) = MAPK12 (human) (UniProt P53778)
MARK1 (human) = MARK1 (human) (UniProt Q9P0L2); settings: compound 0.1 µM
EPHB4 (human) = EPHB4 (human) (UniProt P54760); settings: compound 0.1 µM
MAPK9 (human) = MAPK9 (human) (UniProt P45984)
MAPK9 (human), sequence (P45984 whole entry, looked up): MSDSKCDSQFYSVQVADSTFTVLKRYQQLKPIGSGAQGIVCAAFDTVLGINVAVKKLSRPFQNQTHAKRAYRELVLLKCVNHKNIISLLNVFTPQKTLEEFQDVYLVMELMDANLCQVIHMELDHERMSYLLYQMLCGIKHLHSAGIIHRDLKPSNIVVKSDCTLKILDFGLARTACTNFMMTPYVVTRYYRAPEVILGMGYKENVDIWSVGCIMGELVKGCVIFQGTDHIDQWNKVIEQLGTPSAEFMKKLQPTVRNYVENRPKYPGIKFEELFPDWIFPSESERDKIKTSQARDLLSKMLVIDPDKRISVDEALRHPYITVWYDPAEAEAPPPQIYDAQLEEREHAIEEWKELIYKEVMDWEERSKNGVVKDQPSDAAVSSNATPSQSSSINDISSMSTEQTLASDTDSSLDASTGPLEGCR

PRKACA (human) = PRKACA (human) (UniProt P17612)
PRKCZ (human) = PRKCZ (human) (UniProt Q05513)
PRKCZ (human), sequence (Q05513 whole entry, looked up): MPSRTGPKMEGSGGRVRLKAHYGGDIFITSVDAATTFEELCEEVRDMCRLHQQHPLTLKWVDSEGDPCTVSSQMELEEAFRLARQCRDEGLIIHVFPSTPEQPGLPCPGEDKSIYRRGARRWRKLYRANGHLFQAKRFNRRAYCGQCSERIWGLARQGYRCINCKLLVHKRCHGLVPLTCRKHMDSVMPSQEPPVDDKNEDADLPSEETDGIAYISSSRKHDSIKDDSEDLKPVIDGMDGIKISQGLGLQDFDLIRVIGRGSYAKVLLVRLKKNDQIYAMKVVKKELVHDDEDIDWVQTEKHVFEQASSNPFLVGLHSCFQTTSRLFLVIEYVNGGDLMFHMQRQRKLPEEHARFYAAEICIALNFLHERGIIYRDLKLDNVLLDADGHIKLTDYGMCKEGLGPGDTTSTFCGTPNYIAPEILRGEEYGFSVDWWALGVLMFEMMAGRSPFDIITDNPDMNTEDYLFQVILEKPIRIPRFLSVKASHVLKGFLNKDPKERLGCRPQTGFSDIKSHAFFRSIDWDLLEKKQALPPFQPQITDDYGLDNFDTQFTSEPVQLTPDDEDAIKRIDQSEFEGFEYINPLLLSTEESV

HIPK3 (human) = HIPK3 (human) (UniProt Q9H422); settings: compound 0.1 µM
ERBB4 (human) = ERBB4 (human) (UniProt Q15303)
PIM1 (human) = PIM1 (human) (UniProt P11309)
IGF1R (human) = IGF1R (human) (UniProt P08069)
DAPK1 (human) = DAPK1 (human) (UniProt P53355); settings: compound 0.1 µM
MELK (human) = MELK (human) (UniProt Q14680)
MELK (human), sequence (Q14680 whole entry, looked up): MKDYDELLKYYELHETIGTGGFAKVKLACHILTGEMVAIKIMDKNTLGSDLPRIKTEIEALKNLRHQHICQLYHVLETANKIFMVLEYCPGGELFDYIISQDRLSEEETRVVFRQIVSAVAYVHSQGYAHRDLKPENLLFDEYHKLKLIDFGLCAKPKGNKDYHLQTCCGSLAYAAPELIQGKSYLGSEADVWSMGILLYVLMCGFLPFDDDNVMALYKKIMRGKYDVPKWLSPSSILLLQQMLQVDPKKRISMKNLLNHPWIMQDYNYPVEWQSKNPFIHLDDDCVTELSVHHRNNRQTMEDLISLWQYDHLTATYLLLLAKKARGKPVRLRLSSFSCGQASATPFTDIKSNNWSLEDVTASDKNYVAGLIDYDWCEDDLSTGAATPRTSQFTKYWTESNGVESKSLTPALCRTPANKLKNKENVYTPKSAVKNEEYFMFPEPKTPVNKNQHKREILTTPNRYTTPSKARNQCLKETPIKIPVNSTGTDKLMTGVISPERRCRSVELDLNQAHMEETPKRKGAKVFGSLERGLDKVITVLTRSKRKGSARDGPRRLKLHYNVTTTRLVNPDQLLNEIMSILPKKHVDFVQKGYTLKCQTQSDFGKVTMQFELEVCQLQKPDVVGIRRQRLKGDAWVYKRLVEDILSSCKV

MAPKAPK5 (human) = MAPKAPK5 (human) (UniProt Q8IW41)
EEF2K (human) = EEF2K (human) (UniProt O00418)
MAP2K2 (human) = MAP2K2 (human) (UniProt P36507); settings: compound 0.1 µM
STK3 (human) = STK3 (human) (UniProt Q13188)
STK3 (human), sequence (Q13188 whole entry, looked up): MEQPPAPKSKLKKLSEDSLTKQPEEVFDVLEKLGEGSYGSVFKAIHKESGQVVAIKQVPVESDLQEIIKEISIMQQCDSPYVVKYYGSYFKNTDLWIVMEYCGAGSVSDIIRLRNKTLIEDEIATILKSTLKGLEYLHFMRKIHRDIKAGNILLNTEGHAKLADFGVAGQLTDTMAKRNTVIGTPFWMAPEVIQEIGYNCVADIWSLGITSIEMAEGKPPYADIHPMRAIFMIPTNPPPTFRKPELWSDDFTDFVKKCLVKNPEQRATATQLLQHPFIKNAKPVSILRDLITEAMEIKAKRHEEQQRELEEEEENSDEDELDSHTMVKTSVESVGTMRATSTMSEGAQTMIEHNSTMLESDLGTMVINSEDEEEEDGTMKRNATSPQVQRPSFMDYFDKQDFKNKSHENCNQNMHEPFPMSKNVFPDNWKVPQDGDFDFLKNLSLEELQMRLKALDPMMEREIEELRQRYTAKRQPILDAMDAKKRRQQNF

BRSK2 (human) = BRSK2 (human) (UniProt Q8IWQ3)
BRSK2 (human), sequence (Q8IWQ3 whole entry, looked up): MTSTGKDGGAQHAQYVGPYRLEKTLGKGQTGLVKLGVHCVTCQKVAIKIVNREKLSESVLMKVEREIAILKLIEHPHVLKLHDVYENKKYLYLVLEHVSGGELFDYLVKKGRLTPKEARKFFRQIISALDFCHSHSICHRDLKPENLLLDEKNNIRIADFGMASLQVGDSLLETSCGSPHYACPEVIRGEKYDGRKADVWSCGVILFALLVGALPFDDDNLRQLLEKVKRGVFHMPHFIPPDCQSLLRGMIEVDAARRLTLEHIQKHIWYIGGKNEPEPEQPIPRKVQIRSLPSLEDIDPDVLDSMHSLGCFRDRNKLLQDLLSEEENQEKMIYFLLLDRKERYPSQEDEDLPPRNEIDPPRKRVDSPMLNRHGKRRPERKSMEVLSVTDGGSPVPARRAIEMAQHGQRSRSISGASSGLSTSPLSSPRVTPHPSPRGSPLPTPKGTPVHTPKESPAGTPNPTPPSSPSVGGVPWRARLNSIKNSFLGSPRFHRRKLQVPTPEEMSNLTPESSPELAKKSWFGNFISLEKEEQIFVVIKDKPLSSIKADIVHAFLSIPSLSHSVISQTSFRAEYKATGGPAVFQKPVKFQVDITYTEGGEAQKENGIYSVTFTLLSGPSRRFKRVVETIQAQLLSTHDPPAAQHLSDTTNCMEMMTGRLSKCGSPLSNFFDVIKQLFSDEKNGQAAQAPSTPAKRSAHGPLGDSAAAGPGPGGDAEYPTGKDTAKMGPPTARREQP

PIM3 (human) = PIM3 (human) (UniProt Q86V86)
IKBKE (human) = IKBKE (human) (UniProt Q14164)

SGK1 (human), O00141 [S422D], sequence (O00141 whole entry S422D, looked up): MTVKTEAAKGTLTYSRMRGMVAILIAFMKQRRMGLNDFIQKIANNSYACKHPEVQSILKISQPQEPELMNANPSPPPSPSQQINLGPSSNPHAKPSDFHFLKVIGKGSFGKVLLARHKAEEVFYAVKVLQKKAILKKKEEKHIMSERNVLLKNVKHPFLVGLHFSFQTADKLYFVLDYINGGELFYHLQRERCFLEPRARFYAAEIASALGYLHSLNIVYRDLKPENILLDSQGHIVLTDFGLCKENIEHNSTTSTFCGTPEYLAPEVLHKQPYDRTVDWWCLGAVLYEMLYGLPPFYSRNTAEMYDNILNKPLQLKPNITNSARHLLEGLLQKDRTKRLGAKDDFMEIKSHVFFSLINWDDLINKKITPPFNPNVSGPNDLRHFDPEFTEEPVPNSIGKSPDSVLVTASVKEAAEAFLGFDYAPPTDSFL
PAK7 (human), sequence (Q9P286 whole entry, looked up): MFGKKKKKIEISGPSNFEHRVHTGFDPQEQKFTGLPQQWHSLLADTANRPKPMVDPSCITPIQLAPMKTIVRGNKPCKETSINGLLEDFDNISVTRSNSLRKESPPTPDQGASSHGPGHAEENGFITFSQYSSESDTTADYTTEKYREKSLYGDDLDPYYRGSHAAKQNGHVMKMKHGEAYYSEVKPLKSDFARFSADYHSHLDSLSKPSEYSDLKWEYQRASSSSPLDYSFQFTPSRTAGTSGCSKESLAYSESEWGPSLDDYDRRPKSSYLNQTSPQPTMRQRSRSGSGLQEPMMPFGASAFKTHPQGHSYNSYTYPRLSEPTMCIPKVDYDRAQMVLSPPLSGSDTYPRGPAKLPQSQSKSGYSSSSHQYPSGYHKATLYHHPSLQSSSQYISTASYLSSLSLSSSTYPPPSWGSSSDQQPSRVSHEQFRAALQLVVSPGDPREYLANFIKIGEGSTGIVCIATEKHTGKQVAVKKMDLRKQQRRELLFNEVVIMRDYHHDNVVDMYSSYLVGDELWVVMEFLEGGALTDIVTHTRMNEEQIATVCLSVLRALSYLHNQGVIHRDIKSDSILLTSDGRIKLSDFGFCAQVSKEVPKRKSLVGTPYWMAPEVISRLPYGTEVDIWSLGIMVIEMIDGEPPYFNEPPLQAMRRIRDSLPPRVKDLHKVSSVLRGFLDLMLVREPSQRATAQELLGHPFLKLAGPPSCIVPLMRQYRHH

- residual activity (MAPK13 (human); compound 0.1 µM): 118%
- residual activity (MAPK13 (human); compound 1.0 µM): 87%
- residual activity (MAPK13 (human); compound 10.0 µM): 62%
- residual activity (DYRK1A (human); compound 0.1 µM): 79%
- residual activity (DYRK1A (human); compound 1.0 µM): 47%
- residual activity (DYRK1A (human); compound 10.0 µM): 8%
- residual activity (CAMKK2 (human); compound 0.1 µM): 11%
- residual activity (CAMKK2 (human); compound 1.0 µM): 2%
- residual activity (CAMKK2 (human); compound 10.0 µM): 2%
- residual activity (SYK (human); compound 0.1 µM): 99%
- residual activity (SYK (human); compound 1.0 µM): 66%
- residual activity (SYK (human); compound 10.0 µM): 12%
- residual activity ([1]; compound 0.1 µM): 56%
- residual activity ([1]; compound 1.0 µM): 9%
- residual activity ([1]; compound 10.0 µM): 1%
- residual activity (PHKG1 (human); compound 0.1 µM): 34%
- residual activity (PHKG1 (human); compound 1.0 µM): 3%
- residual activity (PHKG1 (human); compound 10.0 µM): 0%
- residual activity (PAK7 (human); compound 0.1 µM): 110%
- residual activity (PAK7 (human); compound 1.0 µM): 88%
- residual activity (PAK7 (human); compound 10.0 µM): 38%
- residual activity (MAPK3 (human); compound 0.1 µM): 105%
- residual activity (MAPK3 (human); compound 1.0 µM): 75%
- residual activity (MAPK3 (human); compound 10.0 µM): 39%
- residual activity (MAP3K5 (human)): 100%
- residual activity (MKNK1 (human); compound 0.1 µM): 28%
- residual activity (MKNK1 (human); compound 1.0 µM): 3%
- residual activity (MKNK1 (human); compound 10.0 µM): 3%
- residual activity (PIM2 (human); compound 0.1 µM): 104%
- residual activity (PIM2 (human); compound 1.0 µM): 92%
- residual activity (PIM2 (human); compound 10.0 µM): 75%
- residual activity (MAP2K6 (human)): 97%
- residual activity (MAPKAPK2 (human); compound 0.1 µM): 107%
- residual activity (MAPKAPK2 (human); compound 1.0 µM): 103%
- residual activity (MAPKAPK2 (human); compound 10.0 µM): 96%
- residual activity (FGFR1 (human); compound 0.1 µM): 99%
- residual activity (FGFR1 (human); compound 1.0 µM): 77%
- residual activity (FGFR1 (human); compound 10.0 µM): 27%
- residual activity (GSK3B (human); compound 0.1 µM): 94%
- residual activity (GSK3B (human); compound 1.0 µM): 78%
- residual activity (GSK3B (human); compound 10.0 µM): 23%
- residual activity (PRKAA1 or PRKAA2 (rat); compound 0.1 µM): 49%
- residual activity (PRKAA1 or PRKAA2 (rat); compound 1.0 µM): 2%
- residual activity (PRKAA1 or PRKAA2 (rat); compound 10.0 µM): 1%
- residual activity (BRSK1 (human)): 84%
- residual activity (MAPK12 (human); compound 0.1 µM): 106%
- residual activity (MAPK12 (human); compound 1.0 µM): 104%
- residual activity (MAPK12 (human); compound 10.0 µM): 35%
- residual activity (MARK1 (human)): 97%
- residual activity (EPHB4 (human)): 122%
- residual activity (MAPK9 (human); compound 0.1 µM): 80%
- residual activity (MAPK9 (human); compound 1.0 µM): 46%
- residual activity (MAPK9 (human); compound 10.0 µM): 9%
- residual activity (PRKACA (human); compound 0.1 µM): 91%
- residual activity (PRKACA (human); compound 1.0 µM): 104%
- residual activity (PRKACA (human); compound 10.0 µM): 97%
- residual activity (PRKCZ (human); compound 0.1 µM): 96%
- residual activity (PRKCZ (human); compound 1.0 µM): 105%
- residual activity (PRKCZ (human); compound 10.0 µM): 87%
- residual activity (HIPK3 (human)): 100%
- residual activity (ERBB4 (human); compound 0.1 µM): 105%
- residual activity (ERBB4 (human); compound 1.0 µM): 86%
- residual activity (ERBB4 (human); compound 10.0 µM): 71%
- residual activity (PIM1 (human); compound 0.1 µM): 91%
- residual activity (PIM1 (human); compound 1.0 µM): 62%
- residual activity (PIM1 (human); compound 10.0 µM): 26%
- residual activity (IGF1R (human); compound 0.1 µM): 100%
- residual activity (IGF1R (human); compound 1.0 µM): 103%
- residual activity (IGF1R (human); compound 10.0 µM): 18%
- residual activity (DAPK1 (human)): 87%
- residual activity (MELK (human); compound 0.1 µM): 100%
- residual activity (MELK (human); compound 1.0 µM): 27%
- residual activity (MELK (human); compound 10.0 µM): 8%
- residual activity (MAPKAPK5 (human); compound 0.1 µM): 107%
- residual activity (MAPKAPK5 (human); compound 1.0 µM): 77%
- residual activity (MAPKAPK5 (human); compound 10.0 µM): 73%
- residual activity (EEF2K (human); compound 0.1 µM): 120%
- residual activity (EEF2K (human); compound 1.0 µM): 110%
- residual activity (MAP2K2 (human)): 93%
- residual activity (STK3 (human); compound 0.1 µM): 68%
- residual activity (STK3 (human); compound 1.0 µM): 22%
- residual activity (STK3 (human); compound 10.0 µM): 4%
- residual activity (BRSK2 (human); compound 0.1 µM): 86%
- residual activity (BRSK2 (human); compound 1.0 µM): 61%
- residual activity (BRSK2 (human); compound 10.0 µM): 20%
- residual activity (PIM3 (human); compound 0.1 µM): 90%
- residual activity (PIM3 (human); compound 1.0 µM): 86%
- residual activity (PIM3 (human); compound 10.0 µM): 45%
- residual activity (IKBKE (human); compound 0.1 µM): 91%
- residual activity (IKBKE (human); compound 1.0 µM): 44%
- residual activity (IKBKE (human); compound 10.0 µM): 14%
SMILES: O=C(O)c1ccc(-c2c[nH]c3ncc(-c4ccccc4)cc23)cc1C1CCCC1
